Measurements reported in ChEMBL document CHEMBL1124522, “Synthesis and antitumor activity of 5-deaza-5,6,7,8-tetrahydrofolic acid and its N10-substituted analogues” (J Med Chem, 1989).

How the values were obtained:
[1] = system: CCRF-CEM; test: Compound was tested for its antitumor activity against human lymphoblastic leukemic cells(CCRF-CEM) in vitro; type: functional, cell-based
[2] = Percent inhibition against 6C3HED lymphosarcoma at dose 50 mg/kg in C3H mice; type: functional; details: Mus musculus
[3] = Percent inhibition against 6C3HED lymphosarcoma at dose 100 mg/kg in C3H mice; type: functional; details: Mus musculus
[4] = Percent inhibition against 6C3HED lymphosarcoma at dose 12.5 mg/kg in C3H mice; type: functional; details: Mus musculus
[5] = In vivo antitumor activity (toxic/total) at dose 12.5 mg/kg in C3H mice with transplantable murine solid tumor C3H mammary adenocarcinoma; Compound was tested on 10 mice.; type: functional, Mus musculus
[6] = In vivo antitumor activity (toxic/total) at dose 25 mg/kg in C3H mice with transplantable murine solid tumor C3H mammary adenocarcinoma; Compound was tested on 10 mice.; type: functional, Mus musculus
[7] = In vivo antitumor activity (toxic/total) at dose 50 mg/kg in C3H mice with transplantable murine solid tumor C3H mammary adenocarcinoma; Compound was tested on 10 mice.; type: functional, Mus musculus
[8] = In vivo anti tumor activity (toxic/total) at dose 12.5 mg/kg in C3H mice with transplantable murine solid tumor 6C3HED lymphosarcoma; Compound was tested on 10 mice.; type: functional, Mus musculus
[9] = In vivo anti tumor activity (toxic/total) at dose 25 mg/kg in C3H mice with transplantable murine solid tumor 6C3HED lymphosarcoma; Compound was tested on 10 mice.; type: functional, Mus musculus
[10] = In vivo anti tumor activity (toxic/total) at dose 50 mg/kg in C3H mice with transplantable murine solid tumor 6C3HED lymphosarcoma; Compound was tested on 10 mice.; type: functional, Mus musculus
[11] = Percent inhibition against C3H mammary adenocarcinoma at dose 12.5 mg/kg in C3H mice; type: functional; details: Mus musculus
[12] = Percent inhibition against C3H mammary adenocarcinoma at dose 25 mg/kg in C3H mice; type: functional; details: Mus musculus
[13] = Percent inhibition against C3H mammary adenocarcinoma at dose 50 mg/kg in C3H mice;Compound was toxic.; type: ADME, organism-based; design: dose 50 mg/kg; details: mouse, in vivo
[14] = In vivo anti tumor activity (toxic/total) at dose 100 mg/kg in C3H mice with transplantable murine solid tumor 6C3HED lymphosarcoma; Compound was tested on 10 mice.; type: functional, Mus musculus
[15] = Percent inhibition against 6C3HED lymphosarcoma at dose 25 mg/kg in C3H mice; type: functional; details: Mus musculus
[16] = molecular target: T1, Folylpolyglutamate synthase, mitochondrial (Mus musculus) (UniProt P48760); test: Apparent catalytic rate constants (Km) owas determined from mouse liver Folyl-polyglutamate synthase
T1 sequence (whole entry): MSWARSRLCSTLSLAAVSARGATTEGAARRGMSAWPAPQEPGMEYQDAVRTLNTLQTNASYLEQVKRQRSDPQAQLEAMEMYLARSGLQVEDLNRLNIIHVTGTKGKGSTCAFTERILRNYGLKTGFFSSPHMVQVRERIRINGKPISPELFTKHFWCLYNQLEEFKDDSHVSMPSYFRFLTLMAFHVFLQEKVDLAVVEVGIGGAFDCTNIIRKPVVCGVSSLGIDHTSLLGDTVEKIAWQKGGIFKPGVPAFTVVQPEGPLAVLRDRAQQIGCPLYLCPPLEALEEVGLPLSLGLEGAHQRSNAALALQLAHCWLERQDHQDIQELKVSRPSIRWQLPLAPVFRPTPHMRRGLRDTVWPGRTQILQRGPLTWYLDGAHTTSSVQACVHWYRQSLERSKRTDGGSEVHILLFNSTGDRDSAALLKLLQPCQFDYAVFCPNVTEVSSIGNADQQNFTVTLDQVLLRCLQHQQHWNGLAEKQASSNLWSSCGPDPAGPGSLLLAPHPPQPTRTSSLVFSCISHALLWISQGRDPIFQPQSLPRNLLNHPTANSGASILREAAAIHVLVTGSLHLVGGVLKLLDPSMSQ

[17] = molecular target: T1, Folylpolyglutamate synthase, mitochondrial (Mus musculus); test: First order catalytic rate constants (k) was determined from mouse liver Folyl-polyglutamate synthase
[18] = substrate: Nc1nc(N)c2nc(CNc3ccc(C(=O)N[C@@H](CCC(=O)O)C(=O)O)cc3)cnc2n1; test: (§1) Catalytic rate constants (Vmax) was determined from mouse liver Folyl-polyglutamate synthase
[19] = substrate: Nc1nc(O)c2c(n1)NCC(CNc1ccc(C(=O)N[C@@H](CCC(=O)O)C(=O)O)cc1)C2; test: as §1
[20] = substrate: Nc1nc2c(c(=O)[nH]1)C[C@@H](CCc1ccc(C(=O)N[C@@H](CCC(=O)O)C(=O)O)cc1)CN2; test: as §1
[21] = substrate: Nc1nc(=O)c2nc(CNc3ccc(C(=O)N[C@@H](CCC(=O)O)C(=O)O)cc3)cnc2[nH]1; test: Catalytic rate folyl-poly-glutamate synthetase

Molecule CN(CC1CNc2nc(N)nc(O)c2C1)c1ccc(C(=O)N[C@@H](CCC(=O)O)C(=O)O)cc1 (stereo not given in full) has an IC50 ([1]; Homo sapiens, CCRF-CEM) of 40 nM.

With Nc1nc(O)c2c(n1)NCC(CN(C=O)c1ccc(C(=O)N[C@@H](CCC(=O)O)C(=O)O)cc1)C2 (stereo in doubt; 7b) the inhibition in vivo at 50 mg/kg [2] was 100%, the inhibition in vivo at 100 mg/kg [3] was 100% and the inhibition in vivo at 12.5 mg/kg [4] was 95%. It also gave a tox/total [5] of 0, a tox/total [6] of 6 and a tox/total [7] of 10. It also gave an IC50 ([1]; ccrf-cem) of 50 nM, a tox/total [8] of 1 and a tox/total [9] of 1. The tox/total [10] was 5, the inhibition in vivo at 12.5 mg/kg [11] was 86% and the inhibition in vivo at 25 mg/kg [12] was 98%. The Inhibition [13] was “Toxic”, the tox/total [14] was 7 and the inhibition in vivo at 25 mg/kg [15] was 100%.

Molecule Nc1nc2c(c(=O)[nH]1)C[C@@H](CCc1ccc(C(=O)N[C@@H](CCC(=O)O)C(=O)O)cc1)CN2 (stereo in doubt; form 3) has a Km app [16] of 7.3 µM and a k [17] of 32.

Nc1nc(O)c2c(n1)NCC(CNc1ccc(C(=O)N[C@@H](CCC(=O)O)C(=O)O)cc1)C2 (stereo in doubt; 7a-A) gave an IC50 ([1]; ccrf-cem) of 6 nM.

In the case of Nc1nc2c(c(=O)[nH]1)C[C@@H](CCc1ccc(C(=O)N[C@@H](CCC(=O)O)C(=O)O)cc1)CN2 (stereo in doubt; form 3) [LOMETREXOL], the IC50 ([1]; ccrf-cem) is reported as 20 nM.

For CC(=O)N(CC1CNc2nc(N)nc(O)c2C1)c1ccc(C(=O)N[C@@H](CCC(=O)O)C(=O)O)cc1 (stereo not given in full), the IC50 ([1]; Homo sapiens, CCRF-CEM) was 600 nM.

B1: Folylpolyglutamate synthase, mitochondrial (Mus musculus), P48760 (protein)
chain: MSWARSRLCSTLSLAAVSARGATTEGAARRGMSAWPAPQEPGMEYQDAVRTLNTLQTNASYLEQVKRQRSDPQAQLEAMEMYLARSGLQVEDLNRLNIIHVTGTKGKGSTCAFTERILRNYGLKTGFFSSPHMVQVRERIRINGKPISPELFTKHFWCLYNQLEEFKDDSHVSMPSYFRFLTLMAFHVFLQEKVDLAVVEVGIGGAFDCTNIIRKPVVCGVSSLGIDHTSLLGDTVEKIAWQKGGIFKPGVPAFTVVQPEGPLAVLRDRAQQIGCPLYLCPPLEALEEVGLPLSLGLEGAHQRSNAALALQLAHCWLERQDHQDIQELKVSRPSIRWQLPLAPVFRPTPHMRRGLRDTVWPGRTQILQRGPLTWYLDGAHTTSSVQACVHWYRQSLERSKRTDGGSEVHILLFNSTGDRDSAALLKLLQPCQFDYAVFCPNVTEVSSIGNADQQNFTVTLDQVLLRCLQHQQHWNGLAEKQASSNLWSSCGPDPAGPGSLLLAPHPPQPTRTSSLVFSCISHALLWISQGRDPIFQPQSLPRNLLNHPTANSGASILREAAAIHVLVTGSLHLVGGVLKLLDPSMSQ
In the case of B1, the Vmax [18] is reported as 1.59, the Vmax [19] is reported as 1.3 and the Vmax [20] is reported as 1.26. The Vmax [21] was 1.
